What was measured:
Calcium = test: Serum and urine calcium levels in vivo; settings: Cf1 male mice, 8 mg/kg/day I.P. 14 days, N=6
Acid phosphatase [1] = test: Human osteoporosis fibroblasts acid phosphatase activity; type: cell-based
Text: (§1) 1. Acid phosphatase -beta glycerol-3-phosphate, pH 5.0, released IP 720 nm.

[2] = test system: lysosomal and proteolytic enzymes; test: Osteoporosis fibroblasts lysosomal and proteolytic enzymes (statement); type: cell-based, human
Acid phosphatase [3] = test: Mouse macrophage acid phosphatase activity; type: cell-based; settings: Table VII; mouse macrophage cultured cells, 60 min incubation; read-out: Acid Phosphatase IC50
Pg-E2 synthesis = test: 3H-Arachidonic acid conversion to Pg-E2, CF1 hepatic liver; type: biochemical, mouse
5'-lipoxygenase = target: T1, 5'-lipoxygenase (Mus musculus, UniProt P48999); test: Mouse hepatic 5'-lipoxygenase activity; type: biochemical; settings: Table VI; mouse hepatic, 60 min incubation; read-out: 5'-lipoxygenase IC50
T1 construct: Cf1 male mouse hepatic 10% homogenates; from tissue; host or cells: CF1 male mouse liver, 10% homogenate
T1 sequence (P48999 1-674): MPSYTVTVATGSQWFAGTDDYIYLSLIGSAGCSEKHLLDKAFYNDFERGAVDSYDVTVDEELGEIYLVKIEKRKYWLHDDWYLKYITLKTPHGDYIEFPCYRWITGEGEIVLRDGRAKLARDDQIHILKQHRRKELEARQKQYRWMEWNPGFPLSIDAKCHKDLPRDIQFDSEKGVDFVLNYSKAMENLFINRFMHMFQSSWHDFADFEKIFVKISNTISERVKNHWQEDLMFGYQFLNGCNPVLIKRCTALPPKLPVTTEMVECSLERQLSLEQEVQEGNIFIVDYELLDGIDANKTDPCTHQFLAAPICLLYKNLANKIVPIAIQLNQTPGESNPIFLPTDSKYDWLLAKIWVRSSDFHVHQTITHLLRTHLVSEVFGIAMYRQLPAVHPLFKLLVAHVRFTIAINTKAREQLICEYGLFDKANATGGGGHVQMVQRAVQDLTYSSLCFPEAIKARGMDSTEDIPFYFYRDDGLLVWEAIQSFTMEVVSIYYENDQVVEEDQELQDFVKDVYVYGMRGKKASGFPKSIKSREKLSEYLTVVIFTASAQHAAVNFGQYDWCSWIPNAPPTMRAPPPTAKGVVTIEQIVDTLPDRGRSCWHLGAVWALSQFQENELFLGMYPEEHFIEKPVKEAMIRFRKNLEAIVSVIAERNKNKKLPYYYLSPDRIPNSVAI
Text: (§2) 1. Cf1 male mouse hepatic 10% homogenates in 0.25M sucrose+0.001MEDTA,pH 7.2.
5'-lipoxygenase Mylari, B.L., et al, J. Med.

Cathepsin D = target: T2, Cathepsin D (Mus musculus, UniProt P18242); test: Mouse hepatic lysosomal cathepsin D activity; type: biochemical; settings: Table V; mouse hepatic, 60 min incubation; read-out: Cathepsin D IC50
T2 construct: azocasein assay pH 5.0
T2 sequence (P18242 65-410): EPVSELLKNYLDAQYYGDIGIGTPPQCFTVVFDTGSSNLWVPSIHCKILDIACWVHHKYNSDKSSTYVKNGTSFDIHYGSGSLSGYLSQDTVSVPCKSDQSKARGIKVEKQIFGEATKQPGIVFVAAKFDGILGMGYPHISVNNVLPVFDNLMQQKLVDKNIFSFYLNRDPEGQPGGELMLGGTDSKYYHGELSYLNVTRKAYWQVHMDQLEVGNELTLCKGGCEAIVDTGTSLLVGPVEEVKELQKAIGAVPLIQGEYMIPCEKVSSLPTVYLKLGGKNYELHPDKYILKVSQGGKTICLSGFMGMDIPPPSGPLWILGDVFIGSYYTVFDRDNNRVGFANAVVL
Text: as §2
(§3) Lysosomal Enzymes - free and total [triton X-100].
2. Acid Cathepsin D -azocasein-pH 5.0, hydrolytic azo-peptide produce 366 nm.
Cathepsin azo casein activity -

[4] = target: Clostridium histolyticum Collagenase Type II; test: Commercial collagenase type II; type: biochemical; settings: Table IX; commercial enzyme preparation
Text: 4. Collagenase II, Clostridium histolyticum, cartilage collagen.

[5] = target: Clostridium histolyticum Collagenase Type I; test: Commercial collagenase type I; type: biochemical; settings: Table IX; commercial enzyme preparation
Text: 3. Collagenase I, Clostridium histolyticum, bone, skin, tendon, blood vessel, dentine, GI. substrate: rat collagen, N-[propionate-2-3-^3 H] propionylated measured as dpm released.

Cf1 male mice = test: Writhing reflex, 0.6% acetic acid; type: in vivo; settings: Mus musculus, ip; Table IV
Trypsin [6] = test: Mouse hepatic trypsin activity; type: biochemical; settings: Table VI; mouse hepatic, 60 min incubation; read-out: Trypsin IC50
Text: as §2
(§4) 1. Trypsin- N-benzoyl-L-arginine ethyl ester pH 8.0, hydrolytic product 253 nm.

[7] = test system: Prostaglandin cyclooxygenase; test: Mouse macrophage prostaglandin cyclooxygenase activity; type: cell-based; settings: Table VIII; mouse macrophages, 60 min incubation; read-out: Prostaglandin Cyclooxygenase IC50
Text: 3. Mouse macrophages J774A.1 BALB/c
(§5) Prostaglandin synthetase purified beef seminal vesicle ^3 H arachidonic acid (86.2 Ci/mmol), tlc separation.

Trypsin [8] = test: Mouse macrophage trypsin (BAEE) activity; type: cell-based; settings: Table VIII; mouse macrophages, 60 min incubation; read-out: Trypsin BAEE IC50
Elastase = test: Mouse hepatic elastase activity; type: biochemical; settings: Table VI, 60 min incubation
Text: as §2
2. Elastase- N-succinyl-L-alanyl-L-alanine-p-nitroanilide, pH 8.0, p-nitro anilide 410 nm.
Elastase activity - in vitro

Acid phosphatase [9] = test: Mouse hepatic lysosomal acid phosphatase activity; type: biochemical; settings: Table V; mouse hepatic, 60 min incubation
Text: as §2, §3, §1
Acid phosphatase activity -

Trypsin [10] = test: Human osteoporosis fibroblasts trypsin (BAEE) activity; type: cell-based
Text: as §4

Prostaglandin synthetase = target: T3, Prostaglandin synthetase (Bos taurus, UniProt O62664); test: Prostaglandin synthetase (cyclooxygenase), purified beef seminal vesicle; type: biochemical; settings: Table IX; commercial enzyme preparation; read-out: Beef Prostaglandin Cyclooxygenase IC50
T3 construct: Prostaglandin synthetase purified beef seminal vesicle; from tissue
T3 sequence (O62664 25-600): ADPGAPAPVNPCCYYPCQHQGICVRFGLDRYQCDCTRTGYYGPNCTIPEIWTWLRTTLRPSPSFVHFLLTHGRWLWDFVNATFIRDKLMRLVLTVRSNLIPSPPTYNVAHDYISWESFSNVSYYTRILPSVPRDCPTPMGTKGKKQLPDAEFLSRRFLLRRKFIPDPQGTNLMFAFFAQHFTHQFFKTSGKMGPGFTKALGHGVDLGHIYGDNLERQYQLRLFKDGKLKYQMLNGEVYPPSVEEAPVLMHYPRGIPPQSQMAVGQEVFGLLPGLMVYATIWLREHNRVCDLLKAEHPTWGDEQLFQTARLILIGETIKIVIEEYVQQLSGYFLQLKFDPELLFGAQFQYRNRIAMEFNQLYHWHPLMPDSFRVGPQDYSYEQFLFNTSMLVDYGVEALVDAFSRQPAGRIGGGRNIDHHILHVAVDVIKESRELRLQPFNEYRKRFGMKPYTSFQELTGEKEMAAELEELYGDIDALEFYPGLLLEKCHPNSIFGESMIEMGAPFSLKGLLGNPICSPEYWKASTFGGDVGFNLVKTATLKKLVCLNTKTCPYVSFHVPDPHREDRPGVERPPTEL
Text: as §5

## CCCCCCCCCCCCCCCC[N+](C)(C)[BH2-]C(=O)O [Compound 7, N,N-Dimethylhexadecylamine-carboxyborane]
Calcium
  Calcium urine: 80.7 % Control
Acid phosphatase [1]; Table VIIIA, osteoporosis fibroblasts in vitro, read-out: Acid Phosphatase IC-50
  IC50: 16.6 µM
Acid phosphatase [1]; Table X, human osteoporosis fibroblasts, read-out: Acid Phosphatase IC50
  IC50: 16.6 µM
[2]
  inhibition of lysosomal and proteolytic enzymes of osteoporosis fibroblasts: potent inhibitors
Acid phosphatase [3]
  IC50: 940 nM
Pg-E2 synthesis
  hepatic Pg-E2 synthesis reduced: 32%
Pg-E2 synthesis; CF1 hepatic liver
  3H-Arachidonic acid conversion to Pg-E2 reduced: 43%
5'-lipoxygenase
  IC50: 55.8 µM
Cathepsin D
  IC50: 2820 nM
[4]
  IC50: 109 µM
[5]
  IC50: 615 µM
Cf1 male mice
  response vs control in vivo at 20 mg/kg: 54%
Trypsin [6]
  IC50: 1160 nM
[7]
  IC50: 2550 nM
Trypsin [8]
  IC50: 1260 nM
Elastase
  IC50: 49.6 µM
Acid phosphatase [9]
  IC50: 8.86 µM
Trypsin [10]; Table VIIIA, osteoporosis fibroblasts in vitro, read-out: Trypsin (BAEE) IC-50
  IC50: 7.4 µM
Trypsin [10]; Table XI, human osteoporosis fibroblasts, 60 min incubation, read-out: Trypsin BAEE IC50
  IC50: 7.4 µM
Prostaglandin synthetase
  IC50: 2860 nM
